Test system: patients with postpartum depression (PPD)
Experiment: Clinical trial of inhaled 5-MeO-DMT in postpartum depression (MADRS, BPRS, BIMF, PES, safety)
Method: The single-arm, open-label clinical trial will involve 15 adult female patients with clinically diagnosed postpartum depression (PPD).
The second dose (12 mg) will only be administered if: • a. […] The 6 mg dose was safe and well-tolerated according to the investigator, • c. Any psychoactive effects (PsE) of the prior dose have subsided, and • d. Pre-dose vital parameters and forced expiratory volume in one second (FEV1) are in normal range, or if outside of the normal range, are not clinically significant according to the investigator. • 3. Similarly, a third dose (18 mg) will only be administered if: • a. […] The 12 mg dose was safe and well-tolerated according to the investigator, and • c. Any PsE of the prior dose have subsided, and • d. Pre-dose vital parameters and forced expiratory volume in one second (FEV1) are in normal range, or if outside of the normal range, are not clinically significant according to the investigator.
The patients will be assessed for a peak psychedelic experience (based on a patient-scored visual analogue scale, the PE scale), sedation, and other endpoints after dosing. Follow-up visits are planned for Day 1, and Day 7 after the dosing day.
The following criteria must be met by all patients considered for clinical trial participation: • 1. Is female and in the age range between 18 and 45 years (inclusive) at screening. • 2. Has a body mass index (BMI) in the range of 18.5 and 35 kg/m^2 (inclusive) at screening. • 3. Meets the trial criteria for PPD as assessed by a trial psychiatrist or registered psychologist: • a. Diagnosis of Major Depressive Disorder without psychotic features, confirmed by the Mini-International Neuropsychiatric Interview (MINI), with peri-partum onset that began no earlier than gestation and no later than the first 4 weeks postpartum. • b. Has a Montgomery-Åsberg Depression Rating Scale (MADRS) total score of equal to or greater than 28 at screening and pre-dose on Day 0. • 6. […] Patients must have a negative pregnancy test at screening and on the pre-test day (Day −1). • 5. Is willing to delay start of other antidepressant or anxiety medication until after the end of the trial at Day 7 and agrees to keep any psychotherapy unchanged during the trial.
A potential patient who meets any of the following key exclusion criteria will be excluded from participation in this trial: • 1. Has, based on history, psychiatric assessment, and evaluation of the MINI, a current or prior diagnosis of bipolar disorder, a manic or hypomanic episode, a psychotic disorder, Major Depressive Disorder (MDD) or other mood disorder with psychotic features, obsessive compulsive disorder, post-traumatic stress disorder (PTSD), autism spectrum disorder, borderline personality disorder, schizophrenia, delusional disorder, paranoid personality disorder, schizoaffective disorder, clinically significant intellectual disability, or any other psychiatric comorbidity that renders the patient unsuitable for the trial according to the investigator's judgment. • 2. Has one or more first or second degree relatives with a current or previously diagnosed bipolar disorder, psychotic disorder or other mood disorder (including MDD) with psychotic features. • 3. Is in the judgement of a trial psychiatrist or registered psychologist, at significant risk for suicide based on history, psychiatric assessment, and evaluation of suicidal ideation and suicidal behaviour based on the Columbia-Suicide Severity Rating Scale (C-SSRS). • 4. Has taken anti-depressive medication within 14 days or 5 half-lives (whichever is longer) prior to dosing (exception: within the last 5 weeks in the case of fluoxetine). • 5.

[1] = PPD n=1, IDR 6+12 mg inhaled, day 1, baseline 5
[2] = PPD n=1, IDR 6+12 mg inhaled, day 1, baseline 6
[3] = PPD n=1, IDR 6+12 mg inhaled, day 1, baseline 7
[4] = PPD n=1, IDR 6+12 mg inhaled, day 7, baseline 0
[5] = PPD n=1, IDR 6+12 mg inhaled, day 7, baseline 1
[6] = PPD n=1, IDR 6+12 mg inhaled, day 7, baseline 2
[7] = PPD n=1, IDR 6+12 mg inhaled, day 7, baseline 3
[8] = PPD n=1, IDR 6+12 mg inhaled, day 7, baseline 4
[9] = PPD n=1, IDR 6+12 mg inhaled, day 7, baseline 5
[10] = PPD n=1, IDR 6+12 mg inhaled, day 7, baseline 6
[11] = PPD n=1, IDR 6+12 mg inhaled, day 7, baseline 7
[12] = PPD n=1, IDR 6+12 mg inhaled, discharge, baseline 1
[13] = PPD n=1, IDR 6+12 mg inhaled, discharge, baseline 2
[14] = PPD n=1, IDR 6+12 mg inhaled, discharge, baseline 5
[15] = PPD n=1, IDR 6+12 mg inhaled, discharge, baseline 6
[16] = PPD n=1, IDR 6+12 mg inhaled, discharge, baseline 7

COc1ccc2[nH]cc(CCN(C)C)c2c1 [5-MeO-DMT]
0: MADRS Reduced Sleep score [1] | MADRS Concentration Difficulties improvement [4] | MADRS Concentration Difficulties score [4] | MADRS Reduced appetite improvement [4] | MADRS Reduced appetite score [4] | MADRS Suicidal Thoughts improvement [4] | MADRS Suicidal Thoughts score [4] | BPRS Blunted affect improvement [5] | BPRS Conceptual disorganization improvement [5] | BPRS Disorientation improvement [5] | BPRS Grandiosity improvement [5] | BPRS Hallucinatory behaviour improvement [5] | BPRS Hostility improvement [5] | BPRS Mannerisms and Posturing improvement [5] | BPRS Motor retardation improvement [5] | BPRS Suspiciousness improvement [5] | BPRS Uncooperativeness improvement [5] | BPRS Unusual Thought Content improvement [5] | MADRS Inability to Feel score [7] | MADRS Lassitude score [7] | MADRS Pessimistic Thoughts score [8] | MADRS Reported sadness score [8] | MADRS Apparent sadness score [9] | MADRS Reduced Sleep score [9] | BPRS Blunted affect improvement [12] | BPRS Conceptual disorganization improvement [12] | BPRS Disorientation improvement [12] | BPRS Grandiosity improvement [12] | BPRS Hallucinatory behaviour improvement [12] | BPRS Hostility improvement [12] | BPRS Mannerisms and Posturing improvement [12] | BPRS Motor retardation improvement [12] | BPRS Suspiciousness improvement [12] | BPRS Uncooperativeness improvement [12] | BPRS Unusual Thought Content improvement [12]
1: BPRS Depressive Mood score [2] | BPRS Guilt Feelings score [2] | BPRS Somatic Concern score [2] | BPRS Tension score [2] | BPRS Anxiety score [3] | BPRS Blunted Affect score [5] | BPRS Conceptual disorganization score [5] | BPRS Disorientation score [5] | BPRS Grandiosity score [5] | BPRS Hallucinatory behaviour score [5] | BPRS Hostility score [5] | BPRS Mannerisms and Posturing score [5] | BPRS Motor retardation score [5] | BPRS Suspiciousness score [5] | BPRS Uncooperativeness score [5] | BPRS Unusual Thought Content score [5] | BPRS Excitement improvement [6] | BPRS Excitement score [6] | BPRS Emotional Withdrawal score [9] | MADRS Inner Tension score [9] | BPRS Depressive Mood score [10] | BPRS Guilt Feelings score [10] | BPRS Somatic Concern score [10] | BPRS Tension score [10] | BPRS Anxiety score [11] | BPRS Blunted Affect score [12] | BPRS Conceptual disorganization score [12] | BPRS Disorientation score [12] | BPRS Grandiosity score [12] | BPRS Hallucinatory behaviour score [12] | BPRS Hostility score [12] | BPRS Mannerisms and Posturing score [12] | BPRS Motor retardation score [12] | BPRS Suspiciousness score [12] | BPRS Uncooperativeness score [12] | BPRS Unusual Thought Content score [12] | BPRS Excitement improvement [13] | BPRS Excitement score [13] | BPRS Emotional Withdrawal score [14] | BPRS Depressive Mood score [15] | BPRS Guilt Feelings score [15] | BPRS Somatic Concern score [15] | BPRS Tension score [15] | BPRS Anxiety score [16]
4: MADRS Pessimistic Thoughts improvement [8] | MADRS Reported sadness improvement [8] | BPRS Emotional withdrawal improvement [9] | MADRS Inner Tension improvement [9] | BPRS Emotional withdrawal improvement [14]
5: MADRS Reduced Sleep improvement [1] | BPRS Depressive Mood improvement [2] | BPRS Guilt feelings improvement [2] | BPRS Somatic Concern improvement [2] | BPRS Tension improvement [2] | MADRS Apparent sadness improvement [9] | MADRS Reduced Sleep improvement [9] | BPRS Depressive Mood improvement [10] | BPRS Guilt feelings improvement [10] | BPRS Somatic Concern improvement [10] | BPRS Tension improvement [10] | BPRS Depressive Mood improvement [15] | BPRS Guilt feelings improvement [15] | BPRS Somatic Concern improvement [15]
unremarkable: ECG, safety laboratory analyses and CADSS assessments (PPD n=1, ECG 3 hours, laboratory 7 days, CADSS 3 hours, 1 day and 7 days)
3: MADRS Inability to Feel improvement [7] | MADRS Lassitude improvement [7]
6: BPRS Anxiety improvement [3] | BPRS Anxiety improvement [11] | BPRS Anxiety improvement [16]

Source: patent US20250241891A1, “TREATMENT OF ANXIETY” (GH RESEARCH IRELAND LIMITED, priority 2022, published 2025)
